Laboratory results: ChEMBL document CHEMBL1255418, “Occurrence of ST23 complex phylogroup A Escherichia coli isolates producing extended-spectrum AmpC beta-lactamase in a French hospital” (2010)
Converted amounts (≈) assume the structure as drawn.

Columns and labels:
Assay type in all cases: functional
Escherichia coli [1] = assay: Antimicrobial activity against AmpC producing Escherichia coli Top10 isolate 7014517
Escherichia coli [2] = assay: Antimicrobial activity against Escherichia coli isolate 7010738 with AmpC beta-lactamase H296P mutation
Escherichia coli [3] = assay: Antimicrobial activity against AmpC producing Escherichia coli Top10 isolate 25922
Escherichia coli [4] = assay: Antimicrobial activity against Escherichia coli isolate 7008211 with AmpC beta-lactamase H296P mutation
Escherichia coli [5] = assay: Antimicrobial activity against Escherichia coli isolate 7008710 with AmpC beta-lactamase S287N mutation
Escherichia coli [6] = assay: Antimicrobial activity against Escherichia coli isolate 7014517 AmpC with LAA insertion at position 295
Escherichia coli [7] = assay: Antimicrobial activity against AmpC producing Escherichia coli Top10 isolate 8009162
Escherichia coli [8] = assay: Antimicrobial activity against wild-type AmpC producing Escherichia coli ATCC 25922
Escherichia coli [9] = assay: Antimicrobial activity against Escherichia coli isolate 7014517 with AmpC beta-lactamase 295 Ins LAA mutation
Escherichia coli [10] = assay: Antimicrobial activity against Escherichia coli isolate 7008153 with AmpC beta-lactamase H296P mutation
Escherichia coli [11] = assay: Antimicrobial activity against Escherichia coli isolate 5000869 with AmpC beta-lactamase H296P mutation
Escherichia coli [12] = assay: Antimicrobial activity against Escherichia coli isolate 8009162 with AmpC beta-lactamase A292V mutation
Escherichia coli [13] = assay: Antimicrobial activity against Escherichia coli isolate 4009273 with AmpC beta-lactamase S287N mutation
Escherichia coli [14] = assay: Antimicrobial activity against Escherichia coli Top10
Escherichia coli [15] = assay: Antimicrobial activity against Escherichia coli isolate 8009989 with AmpC beta-lactamase H296P mutation
Escherichia coli [16] = assay: Antimicrobial activity against Escherichia coli isolate 7001178 with AmpC beta-lactamase S287N mutation
Escherichia coli [17] = assay: Antimicrobial activity against Escherichia coli isolate 8009162 AmpC with A292V mutation
Escherichia coli [18] = assay: Antimicrobial activity against Escherichia coli isolate 8009389 with AmpC beta-lactamase H296P mutation

Row | Structure (SMILES) | MIC (Escherichia coli [1]) | MIC (Escherichia coli [2]) | MIC (Escherichia coli [3]) | MIC (Escherichia coli [4]) | MIC (Escherichia coli [5]) | MIC (Escherichia coli [6]) | MIC (Escherichia coli [7]) | MIC (Escherichia coli [8]) | MIC (Escherichia coli [9]) | MIC (Escherichia coli [10]) | MIC (Escherichia coli [11]) | MIC (Escherichia coli [12]) | MIC (Escherichia coli [13]) | MIC (Escherichia coli [14]) | MIC (Escherichia coli [15]) | MIC (Escherichia coli [16]) | MIC (Escherichia coli [17]) | MIC (Escherichia coli [18])
1 | CC(C)(O/N=C(\C(=O)N[C@@H]1C(=O)N2C(C(=O)[O-])=C(C[n+]3ccccc3)CS[C@H]12)c1csc(N)n1)C(=O)O [CEFTAZIDIME] | > 256 µg/mL | ≥ 64 µg/mL | 4 µg/mL (≈ 7.32 µM) | ≥ 64 µg/mL | ≥ 64 µg/mL | 64 µg/mL (≈ 117 µM) | > 256 µg/mL | 0.09 µg/mL (≈ 0.165 µM) | ≥ 64 µg/mL | ≥ 64 µg/mL | ≥ 64 µg/mL | ≥ 64 µg/mL | ≥ 64 µg/mL | < 0.06 µg/mL | ≥ 64 µg/mL | ≥ 64 µg/mL | 64 µg/mL (≈ 117 µM) | ≥ 64 µg/mL
2 | CO/N=C(\C(=O)N[C@@H]1C(=O)N2C(C(=O)O)=C(COC(C)=O)CS[C@H]12)c1csc(N)n1 [CEFOTAXIME] | 32 µg/mL (≈ 70.3 µM) | 8 µg/mL (≈ 17.6 µM) | 0.75 µg/mL (≈ 1.65 µM) | 8 µg/mL (≈ 17.6 µM) | 16 µg/mL (≈ 35.1 µM) | 16 µg/mL (≈ 35.1 µM) | 12 µg/mL (≈ 26.3 µM) | < 0.06 µg/mL | 16 µg/mL (≈ 35.1 µM) | 16 µg/mL (≈ 35.1 µM) | 4 µg/mL (≈ 8.78 µM) | 8 µg/mL (≈ 17.6 µM) | 8 µg/mL (≈ 17.6 µM) | < 0.06 µg/mL | 8 µg/mL (≈ 17.6 µM) | 8 µg/mL (≈ 17.6 µM) | 8 µg/mL (≈ 17.6 µM) | 8 µg/mL (≈ 17.6 µM)
3 | CO/N=C(\C(=O)N[C@@H]1C(=O)N2C(C(=O)[O-])=C(C[N+]3(C)CCCC3)CS[C@H]12)c1csc(N)n1 [CEFEPIME] | 4 µg/mL (≈ 8.32 µM) | 8 µg/mL (≈ 16.6 µM) | 0.06 µg/mL (≈ 0.125 µM) | 16 µg/mL (≈ 33.3 µM) | 8 µg/mL (≈ 16.6 µM) | 8 µg/mL (≈ 16.6 µM) | 0.75 µg/mL (≈ 1.56 µM) | < 0.06 µg/mL | 8 µg/mL (≈ 16.6 µM) | 16 µg/mL (≈ 33.3 µM) | 4 µg/mL (≈ 8.32 µM) | 0.75 µg/mL (≈ 1.56 µM) | 4 µg/mL (≈ 8.32 µM) | < 0.06 µg/mL | 8 µg/mL (≈ 16.6 µM) | 2 µg/mL (≈ 4.16 µM) | 0.75 µg/mL (≈ 1.56 µM) | 16 µg/mL (≈ 33.3 µM)
